Columns and labels:
cereblon-DDB1 = cereblon-DDB1 (Homo sapiens, UniProt Q96SW2); experiment: Fluorescent polarization: probe displacement from purified cereblon-DDB1; type: binding; conditions: competition with Alexa-647 based fluorescence probe
Experimental: Columns 23 and 24 are reserved for 0% (5 nM probe) and 100% controls (protein at high concentration with 5 nM probe), respectively. […] Plates were read on an Envision plate reader with appropriate FP filter sets.

[1] = target: T1, cereblon-NanoLuc fusion protein in 293T cells (Homo sapiens, UniProt Q96SW2); experiment: In-cell cereblon competition (NanoBRET tracer displacement); type: cell-based; conditions: 2 hours at 37° C.; read-out: IC50, 50% of the tracer displaced
T1 construct: expressed in transfected cells; host or cells: 293T cells, lentiviral

[2] = tested on: Interferon-response proteins in DL-40 ALCL xenograft tumors; experiment: Global proteomics and gene ontology of DL-40 ALCL xenograft tumors, 48 hours after dose; type: in vivo, mice; conditions: 0.1 nM for 48 hr
Experimental: […] Gene ontology analysis was done by using BINGO, a Java-based tool that is implemented as a plugin for Cytoscape. Default settings were used to assess the overexpression of GO categories and the interactions among altered proteins were determined using the STRING database, with a cutoff score of 700.

## O=C1CC[C@H](N2C(=O)c3cccc4c(Cc5ccc(CN6CCOCC6)cc5)ccc2c34)C(=O)N1 (single isomer, unassigned) [Compound 1]
cereblon-DDB1
  Kd: 900 pM
[1]
  IC50: 400 pM
[2]
  Log2 vs Vehicle, AAAS: 0.043
  Log2 vs Vehicle, ABCE1: −0.112
  Log2 vs Vehicle, ADAR: 0.065
  Log2 vs Vehicle, ARIHI: 0.023
  Log2 vs Vehicle, B2M: −0.048
  Log2 vs Vehicle, BST2: 0.241
  Log2 vs Vehicle, CAMK2A: −0.697
  Log2 vs Vehicle, CAMK2B: 0.054
  Log2 vs Vehicle, CAMK2D: 0.038
  Log2 vs Vehicle, CAMK2G: −0.054
  Log2 vs Vehicle, CD44: −0.377
  Log2 vs Vehicle, CIITA: −0.076
  Log2 vs Vehicle, DDX58: 0.455
  Log2 vs Vehicle, EIF2AK2: 0.527
  Log2 vs Vehicle, EIF4A1: 0.13
  Log2 vs Vehicle, EIF4A2: 0.08
  Log2 vs Vehicle, EIF4A3: 0.079
  Log2 vs Vehicle, EIF4E2: 0.179
  Log2 vs Vehicle, EIF4E3: 0.208
  Log2 vs Vehicle, EIF4G1: −0.048
  Log2 vs Vehicle, EIF4G2: −0.071
  Log2 vs Vehicle, EIF4G3: −0.108
  Log2 vs Vehicle, FLNA: 1.179
  Log2 vs Vehicle, FLNB: 0.234
  Log2 vs Vehicle, GBP1: 0.343
  Log2 vs Vehicle, GBP2: −0.269
  Log2 vs Vehicle, GBP4: 0.388
  Log2 vs Vehicle, HERC5: −0.149
  Log2 vs Vehicle, HLA-A: −0.128
  Log2 vs Vehicle, HLA-B: 0.066
  Log2 vs Vehicle, HLA-C: −0.065
  Log2 vs Vehicle, HLA-DPA1: −0.139
  Log2 vs Vehicle, HLA-DPB1: −0.023
  Log2 vs Vehicle, HLA-DQA2: −0.144
  Log2 vs Vehicle, HLA-DQB1: 0.055
  Log2 vs Vehicle, HLA-DRA: −0.133
  Log2 vs Vehicle, HLA-DRB1: −0.1
  Log2 vs Vehicle, HLA-E: −0.167
  Log2 vs Vehicle, HLA-F: 0.408
  Log2 vs Vehicle, ICAM1: 0.31
  Log2 vs Vehicle, IFI30: 0.217
  Log2 vs Vehicle, IFI35: 0.153
  Log2 vs Vehicle, IFIT2: −0.186
  Log2 vs Vehicle, IFIT3: 0.736
  Log2 vs Vehicle, IR.F9: 0.535
  Log2 vs Vehicle, IRF1: 0.147
  Log2 vs Vehicle, IRF2: −0.265
  Log2 vs Vehicle, IRF3: 0.114
  Log2 vs Vehicle, IRF4: −0.452
  Log2 vs Vehicle, IRF5: 0.192
  Log2 vs Vehicle, IRF7: 0.264
  Log2 vs Vehicle, ISG15: 0.241
  Log2 vs Vehicle, ISG20: −0.168
  Log2 vs Vehicle, J A KI: 0.036
  Log2 vs Vehicle, KPNA1: 0.045
  Log2 vs Vehicle, KPNA2: 0.058
  Log2 vs Vehicle, KPNA3: 0
  Log2 vs Vehicle, KPNA4: 0.075
  Log2 vs Vehicle, KPNB1: 0.038
  Log2 vs Vehicle, MAPK3: −0.042
  Log2 vs Vehicle, MT2A: −0.297
  Log2 vs Vehicle, MX1: 1.715
  Log2 vs Vehicle, MX2: 0.83
  Log2 vs Vehicle, NCAM1: −0.127
  Log2 vs Vehicle, NDC1: −0.063

— patent publication US20230190760A1, “ADVANTAGEOUS THERAPIES FOR DISORDERS MEDIATED BY IKAROS OR AIOLOS” (C4 Therapeutics, Inc., priority 2020, published 2023)
